Measurements published in ChEMBL document CHEMBL1201862, “PubChem BioAssay data set” (2004).
Active and inactive are the calls of the source.

Assays:
[1] = biological target: Adenosylmethionine-8-amino-7-oxononanoate aminotransferase (Mycobacterium tuberculosis, UniProt P9WQ81); experiment: Mycobacterium tuberculosis BioA enzyme inhibitor Measured in Biochemical System Using Plate Reader - 2163-02_Inhibitor_Dose_CherryPick_Activity.; assay type: functional, Mycobacterium tuberculosis UT205
[2] = biological target: Aryl hydrocarbon receptor (Homo sapiens, UniProt P35869); conditions: Potency;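 note: confirmatory quantitative high-throughput screen measuring activation of the AhR signaling pathway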
Sequence of Aryl hydrocarbon receptor (P35869 whole entry): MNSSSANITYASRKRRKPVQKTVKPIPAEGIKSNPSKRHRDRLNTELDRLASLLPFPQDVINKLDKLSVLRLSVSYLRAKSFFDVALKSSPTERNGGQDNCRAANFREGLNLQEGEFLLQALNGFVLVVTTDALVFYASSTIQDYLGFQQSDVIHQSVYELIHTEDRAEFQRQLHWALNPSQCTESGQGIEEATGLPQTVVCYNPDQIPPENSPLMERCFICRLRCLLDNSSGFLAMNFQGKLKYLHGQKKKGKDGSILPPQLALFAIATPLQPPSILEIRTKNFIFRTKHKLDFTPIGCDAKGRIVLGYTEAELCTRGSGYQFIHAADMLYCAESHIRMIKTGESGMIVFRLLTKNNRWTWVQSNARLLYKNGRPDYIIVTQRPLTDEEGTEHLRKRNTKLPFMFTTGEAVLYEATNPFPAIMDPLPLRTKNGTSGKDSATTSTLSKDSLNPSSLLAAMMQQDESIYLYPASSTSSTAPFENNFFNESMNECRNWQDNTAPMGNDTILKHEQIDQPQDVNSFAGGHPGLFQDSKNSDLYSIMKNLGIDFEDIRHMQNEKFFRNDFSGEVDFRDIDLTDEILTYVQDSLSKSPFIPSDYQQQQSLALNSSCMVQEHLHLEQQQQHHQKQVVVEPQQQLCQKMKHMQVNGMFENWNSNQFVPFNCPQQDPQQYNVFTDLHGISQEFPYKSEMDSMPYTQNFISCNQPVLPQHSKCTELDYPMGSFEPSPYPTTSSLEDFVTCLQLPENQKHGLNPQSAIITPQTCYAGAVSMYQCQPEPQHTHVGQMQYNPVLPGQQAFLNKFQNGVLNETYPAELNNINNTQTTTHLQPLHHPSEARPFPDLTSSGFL

Cytochrome P450 2C19 = Cytochrome P450 2C19 (Homo sapiens, UniProt P33261); experiment: Cytochrome panel assay with activity outcomes. Panel member name: p450-cyp2c19 Compounds with AC50 equal or less than 10 uM are considered active; assay type: functional; conditions: read-out: AC50
Sequence of Cytochrome P450 2C19 (P33261 whole entry): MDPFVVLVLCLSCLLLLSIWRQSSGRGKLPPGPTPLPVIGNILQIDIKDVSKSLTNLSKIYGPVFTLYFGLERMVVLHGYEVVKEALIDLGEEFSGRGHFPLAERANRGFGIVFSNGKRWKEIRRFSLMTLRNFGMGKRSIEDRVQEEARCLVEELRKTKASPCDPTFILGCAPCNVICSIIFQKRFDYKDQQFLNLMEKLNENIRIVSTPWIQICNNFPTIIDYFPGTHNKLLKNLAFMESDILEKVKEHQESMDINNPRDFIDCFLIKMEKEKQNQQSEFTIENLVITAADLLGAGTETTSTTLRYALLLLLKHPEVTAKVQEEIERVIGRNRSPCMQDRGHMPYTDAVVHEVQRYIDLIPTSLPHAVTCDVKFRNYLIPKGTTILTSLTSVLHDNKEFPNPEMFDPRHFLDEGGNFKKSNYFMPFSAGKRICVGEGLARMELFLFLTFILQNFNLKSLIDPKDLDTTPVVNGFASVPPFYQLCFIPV

Cytochrome P450 3A4 = Cytochrome P450 3A4 (Homo sapiens, UniProt P08684);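 note: CYP3A4 tested as one member of a cytochrome P450 panel screen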
Sequence of Cytochrome P450 3A4 (P08684 whole entry): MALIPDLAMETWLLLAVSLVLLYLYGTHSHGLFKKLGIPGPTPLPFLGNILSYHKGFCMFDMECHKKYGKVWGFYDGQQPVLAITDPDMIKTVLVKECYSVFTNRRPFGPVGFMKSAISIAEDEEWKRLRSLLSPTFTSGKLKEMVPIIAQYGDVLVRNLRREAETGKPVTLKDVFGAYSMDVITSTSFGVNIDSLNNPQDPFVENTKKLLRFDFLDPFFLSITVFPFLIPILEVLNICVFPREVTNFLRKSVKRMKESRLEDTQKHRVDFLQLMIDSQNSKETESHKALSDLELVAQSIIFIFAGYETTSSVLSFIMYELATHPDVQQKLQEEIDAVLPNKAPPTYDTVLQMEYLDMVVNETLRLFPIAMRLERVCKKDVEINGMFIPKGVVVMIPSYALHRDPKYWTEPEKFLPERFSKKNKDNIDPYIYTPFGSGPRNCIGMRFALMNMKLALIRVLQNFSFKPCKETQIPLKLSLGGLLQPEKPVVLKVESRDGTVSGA

Cytochrome P450 2C9 = Cytochrome P450 2C9 (Homo sapiens, UniProt P11712)
Sequence of Cytochrome P450 2C9 (P11712 whole entry): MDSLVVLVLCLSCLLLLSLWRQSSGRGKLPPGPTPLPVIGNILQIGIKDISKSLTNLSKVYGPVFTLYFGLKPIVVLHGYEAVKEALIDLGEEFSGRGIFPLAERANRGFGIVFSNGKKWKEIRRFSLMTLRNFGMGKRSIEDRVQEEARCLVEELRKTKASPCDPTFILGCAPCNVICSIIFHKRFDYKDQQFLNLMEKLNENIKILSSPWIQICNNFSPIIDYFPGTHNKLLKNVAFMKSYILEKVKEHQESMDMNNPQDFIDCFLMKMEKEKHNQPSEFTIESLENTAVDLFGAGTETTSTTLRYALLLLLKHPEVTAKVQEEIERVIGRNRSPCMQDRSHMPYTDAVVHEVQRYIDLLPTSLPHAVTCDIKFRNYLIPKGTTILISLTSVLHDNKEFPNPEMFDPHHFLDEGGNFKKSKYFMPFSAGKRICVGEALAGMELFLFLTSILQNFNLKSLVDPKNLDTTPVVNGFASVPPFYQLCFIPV

[3] = biological target: T1, Low molecular weight phosphotyrosine protein phosphatase (Homo sapiens, UniProt P24666); assay type: functional; conditions: read-out: IC50_Mean
T1 sequence (P24666 whole entry): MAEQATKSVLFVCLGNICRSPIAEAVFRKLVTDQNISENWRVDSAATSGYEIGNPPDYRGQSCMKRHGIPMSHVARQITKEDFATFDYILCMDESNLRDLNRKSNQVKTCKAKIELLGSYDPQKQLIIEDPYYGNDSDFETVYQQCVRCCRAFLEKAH

[4] = C. albicans growth with fluconazole, confirmation, fluorescence, retest (AID 2467); assay type: functional, cell-based
[5] = NIH-3T3 fibroblast cytotoxicity, dose response, cytotoxicity control, cell-based, fluorescence, Alamar Blue, secondary assay (AID 2327); assay type: functional;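 note: NIH-3T3 mouse fibroblasts cultured with fluconazole at 8 µg/mL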
[6] = biological target: T2, Polyadenylate-binding protein 1 (Homo sapiens, UniProt P11940); experiment: PABP1 MLLE–PAM2 interaction inhibitors, dose response, miRNA deadenylation inhibitor project, biochemical, fluorescence polarization, Cy5-PAM2 peptide, secondary (AID 602260); assay type: functional; conditions: read-out: IC50_Mean
T2 sequence (P11940 whole entry): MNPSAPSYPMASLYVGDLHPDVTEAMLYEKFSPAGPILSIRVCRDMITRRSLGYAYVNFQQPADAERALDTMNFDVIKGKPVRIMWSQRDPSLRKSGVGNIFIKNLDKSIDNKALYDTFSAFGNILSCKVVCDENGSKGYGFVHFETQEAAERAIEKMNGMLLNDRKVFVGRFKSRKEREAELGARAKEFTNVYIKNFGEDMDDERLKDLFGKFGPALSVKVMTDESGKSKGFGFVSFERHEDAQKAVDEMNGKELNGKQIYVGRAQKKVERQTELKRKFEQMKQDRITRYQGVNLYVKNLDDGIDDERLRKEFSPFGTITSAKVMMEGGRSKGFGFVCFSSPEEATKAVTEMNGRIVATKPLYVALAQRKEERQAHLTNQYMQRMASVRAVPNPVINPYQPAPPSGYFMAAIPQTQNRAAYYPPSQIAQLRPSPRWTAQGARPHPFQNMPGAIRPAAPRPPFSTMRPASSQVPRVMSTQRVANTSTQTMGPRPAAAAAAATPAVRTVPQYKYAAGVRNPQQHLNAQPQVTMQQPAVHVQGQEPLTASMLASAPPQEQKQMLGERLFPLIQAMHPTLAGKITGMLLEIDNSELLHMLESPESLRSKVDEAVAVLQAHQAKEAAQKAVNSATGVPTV

[7] = biological target: T3, Sentrin-specific protease 7 (Homo sapiens, UniProt Q9BQF6); assay type: functional;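 note: Luminescence-based dose-response confirmation of ultra-high-throughput screening hits, measuring inhibition of SENP7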
T3 sequence (Q9BQF6 whole entry): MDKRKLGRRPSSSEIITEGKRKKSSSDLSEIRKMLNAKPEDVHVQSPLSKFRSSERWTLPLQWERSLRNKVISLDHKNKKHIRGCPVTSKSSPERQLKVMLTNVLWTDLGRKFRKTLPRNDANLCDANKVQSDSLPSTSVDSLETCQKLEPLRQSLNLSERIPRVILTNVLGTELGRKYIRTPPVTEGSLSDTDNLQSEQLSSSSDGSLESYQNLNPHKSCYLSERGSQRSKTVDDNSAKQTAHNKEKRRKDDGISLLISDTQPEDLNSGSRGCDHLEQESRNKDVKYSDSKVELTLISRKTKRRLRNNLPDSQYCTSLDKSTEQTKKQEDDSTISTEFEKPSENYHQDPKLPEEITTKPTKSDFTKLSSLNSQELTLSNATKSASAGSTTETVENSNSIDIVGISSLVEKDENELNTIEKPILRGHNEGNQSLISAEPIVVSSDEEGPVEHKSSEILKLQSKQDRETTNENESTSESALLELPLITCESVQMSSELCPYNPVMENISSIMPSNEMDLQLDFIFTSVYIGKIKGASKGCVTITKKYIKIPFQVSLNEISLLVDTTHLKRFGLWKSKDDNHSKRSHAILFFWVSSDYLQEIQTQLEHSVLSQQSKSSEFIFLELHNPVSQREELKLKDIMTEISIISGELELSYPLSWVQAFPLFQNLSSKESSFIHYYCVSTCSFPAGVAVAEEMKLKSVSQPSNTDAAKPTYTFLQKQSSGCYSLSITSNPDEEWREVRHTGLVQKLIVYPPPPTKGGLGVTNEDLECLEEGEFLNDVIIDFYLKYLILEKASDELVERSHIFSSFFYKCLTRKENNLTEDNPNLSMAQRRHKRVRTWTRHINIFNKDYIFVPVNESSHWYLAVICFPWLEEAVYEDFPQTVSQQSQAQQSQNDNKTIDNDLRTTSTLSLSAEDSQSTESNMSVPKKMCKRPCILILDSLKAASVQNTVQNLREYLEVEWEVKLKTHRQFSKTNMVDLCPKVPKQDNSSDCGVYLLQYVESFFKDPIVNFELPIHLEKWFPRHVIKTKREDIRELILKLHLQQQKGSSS

[8] = biological target: T2, Polyadenylate-binding protein 1; experiment: PABP1 MLLE–PAM2 binding inhibitor potency, dose response, biochemical, fluorescence polarization, FITC-PAM2 peptide (AID 602259); assay type: functional; conditions: read-out: IC50_Mean
[9] = biological target: T4, Sentrin-specific protease 8 (Homo sapiens, UniProt Q96LD8); assay type: functional;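 note: luminescence read-out of SENP8 inhibition, dose-response confirmation following an ultra-high-throughput screen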
T4 sequence (Q96LD8 whole entry): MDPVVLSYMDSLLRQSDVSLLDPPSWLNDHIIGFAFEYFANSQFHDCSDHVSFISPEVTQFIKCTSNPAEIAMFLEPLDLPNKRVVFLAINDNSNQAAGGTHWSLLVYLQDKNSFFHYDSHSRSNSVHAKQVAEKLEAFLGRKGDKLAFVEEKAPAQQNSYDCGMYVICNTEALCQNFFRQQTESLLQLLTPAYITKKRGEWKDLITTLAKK

Caspase-3 = biological target: T5, Caspase-3 (Homo sapiens, UniProt P42574); assay type: functional;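 note: Dose-response selectivity test against caspase-3 for candidate inhibitors of sentrin-specific proteases (SENPs)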
T5 sequence (P42574 whole entry): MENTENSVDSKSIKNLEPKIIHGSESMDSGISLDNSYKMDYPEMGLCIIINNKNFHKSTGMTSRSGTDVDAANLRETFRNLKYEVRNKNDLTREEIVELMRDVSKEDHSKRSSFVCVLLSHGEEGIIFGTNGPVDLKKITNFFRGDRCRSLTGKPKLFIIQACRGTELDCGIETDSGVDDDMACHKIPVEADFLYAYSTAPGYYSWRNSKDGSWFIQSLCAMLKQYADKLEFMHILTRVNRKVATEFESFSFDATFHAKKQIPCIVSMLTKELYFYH

[10] = biological target: T6, Sentrin-specific protease 6 (Homo sapiens, UniProt Q9GZR1); assay type: functional;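 note: Luminescence-based dose-response confirmatory assay of SENP6 inhibition, following up an ultra-high-throughput screen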
T6 sequence (Q9GZR1 whole entry): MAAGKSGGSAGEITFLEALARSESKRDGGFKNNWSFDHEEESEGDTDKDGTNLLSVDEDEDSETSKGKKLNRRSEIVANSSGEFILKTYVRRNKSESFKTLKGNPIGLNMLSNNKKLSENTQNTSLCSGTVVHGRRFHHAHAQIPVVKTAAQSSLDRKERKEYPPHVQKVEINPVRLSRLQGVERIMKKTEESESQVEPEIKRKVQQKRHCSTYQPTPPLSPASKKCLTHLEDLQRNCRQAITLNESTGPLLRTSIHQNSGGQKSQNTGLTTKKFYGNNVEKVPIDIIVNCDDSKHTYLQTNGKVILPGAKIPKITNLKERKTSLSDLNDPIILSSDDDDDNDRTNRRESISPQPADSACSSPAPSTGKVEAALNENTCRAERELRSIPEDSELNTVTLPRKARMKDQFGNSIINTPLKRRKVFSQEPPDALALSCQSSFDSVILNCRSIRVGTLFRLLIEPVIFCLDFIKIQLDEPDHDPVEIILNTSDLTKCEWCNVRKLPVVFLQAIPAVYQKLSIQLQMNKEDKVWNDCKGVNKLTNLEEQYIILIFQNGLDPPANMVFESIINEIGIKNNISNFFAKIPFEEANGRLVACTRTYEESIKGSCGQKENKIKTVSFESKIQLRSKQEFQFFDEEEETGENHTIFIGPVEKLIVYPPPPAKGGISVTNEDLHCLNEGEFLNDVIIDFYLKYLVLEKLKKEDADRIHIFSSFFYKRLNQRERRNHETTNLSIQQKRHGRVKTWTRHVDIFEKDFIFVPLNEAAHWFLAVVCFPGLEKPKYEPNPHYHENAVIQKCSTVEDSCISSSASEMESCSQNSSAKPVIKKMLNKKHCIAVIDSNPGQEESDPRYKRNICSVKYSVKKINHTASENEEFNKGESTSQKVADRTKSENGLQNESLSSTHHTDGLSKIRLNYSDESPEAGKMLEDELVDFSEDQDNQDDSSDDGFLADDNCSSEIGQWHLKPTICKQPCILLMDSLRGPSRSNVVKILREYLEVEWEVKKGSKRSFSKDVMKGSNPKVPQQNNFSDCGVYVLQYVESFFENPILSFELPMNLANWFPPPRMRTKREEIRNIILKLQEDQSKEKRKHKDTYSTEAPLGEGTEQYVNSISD

[11] = biological target: T7, Apoptotic protease-activating factor 1 (Homo sapiens, UniProt O14727); experiment: SAR analysis of small molecule Activators of Apaf-1 in a Fluorescent assay.; assay type: functional; conditions: read-out: EC50_Mean;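 note: caspase-3 cleavage of fluorogenic Rh110 DEVD substrate downstream of apoptosome activation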
T7 sequence (O14727 whole entry): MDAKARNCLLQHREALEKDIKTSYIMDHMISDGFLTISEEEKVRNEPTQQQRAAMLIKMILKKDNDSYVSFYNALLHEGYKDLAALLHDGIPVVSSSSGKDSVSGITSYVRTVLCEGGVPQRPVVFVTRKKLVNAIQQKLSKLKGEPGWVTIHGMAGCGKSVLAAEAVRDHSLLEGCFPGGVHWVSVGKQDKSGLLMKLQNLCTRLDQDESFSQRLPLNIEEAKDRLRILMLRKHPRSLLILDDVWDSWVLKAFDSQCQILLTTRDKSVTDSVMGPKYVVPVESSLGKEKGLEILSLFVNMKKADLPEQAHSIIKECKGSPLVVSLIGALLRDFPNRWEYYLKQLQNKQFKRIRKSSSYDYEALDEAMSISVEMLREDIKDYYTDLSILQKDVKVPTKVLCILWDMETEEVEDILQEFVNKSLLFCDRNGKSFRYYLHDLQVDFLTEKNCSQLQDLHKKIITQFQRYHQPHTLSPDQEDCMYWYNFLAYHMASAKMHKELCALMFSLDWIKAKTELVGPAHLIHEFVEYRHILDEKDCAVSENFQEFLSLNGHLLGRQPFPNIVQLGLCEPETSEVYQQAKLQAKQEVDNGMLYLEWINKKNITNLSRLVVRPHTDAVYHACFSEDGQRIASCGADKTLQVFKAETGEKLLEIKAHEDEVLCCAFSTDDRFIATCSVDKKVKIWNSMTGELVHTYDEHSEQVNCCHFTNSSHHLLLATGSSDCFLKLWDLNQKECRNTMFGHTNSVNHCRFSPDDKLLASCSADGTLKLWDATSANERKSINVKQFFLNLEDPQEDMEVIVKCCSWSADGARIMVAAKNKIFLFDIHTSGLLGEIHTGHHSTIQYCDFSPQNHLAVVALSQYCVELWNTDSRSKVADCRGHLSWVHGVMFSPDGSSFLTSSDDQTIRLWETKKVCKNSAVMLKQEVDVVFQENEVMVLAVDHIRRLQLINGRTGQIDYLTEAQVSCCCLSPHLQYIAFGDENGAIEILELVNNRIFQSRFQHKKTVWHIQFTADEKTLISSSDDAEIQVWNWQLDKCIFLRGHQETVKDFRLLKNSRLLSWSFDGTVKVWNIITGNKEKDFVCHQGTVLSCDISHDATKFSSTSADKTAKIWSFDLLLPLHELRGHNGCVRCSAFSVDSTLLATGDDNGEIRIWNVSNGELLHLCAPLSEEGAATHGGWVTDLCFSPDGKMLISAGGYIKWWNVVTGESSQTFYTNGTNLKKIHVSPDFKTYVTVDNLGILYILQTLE

[12] = biological target: T1, Low molecular weight phosphotyrosine protein phosphatase; assay type: functional; conditions: read-out: IC50_Mean; remark: listed apart in the source

Sequence of Adenosylmethionine-8-amino-7-oxononanoate aminotransferase (P9WQ81 whole entry): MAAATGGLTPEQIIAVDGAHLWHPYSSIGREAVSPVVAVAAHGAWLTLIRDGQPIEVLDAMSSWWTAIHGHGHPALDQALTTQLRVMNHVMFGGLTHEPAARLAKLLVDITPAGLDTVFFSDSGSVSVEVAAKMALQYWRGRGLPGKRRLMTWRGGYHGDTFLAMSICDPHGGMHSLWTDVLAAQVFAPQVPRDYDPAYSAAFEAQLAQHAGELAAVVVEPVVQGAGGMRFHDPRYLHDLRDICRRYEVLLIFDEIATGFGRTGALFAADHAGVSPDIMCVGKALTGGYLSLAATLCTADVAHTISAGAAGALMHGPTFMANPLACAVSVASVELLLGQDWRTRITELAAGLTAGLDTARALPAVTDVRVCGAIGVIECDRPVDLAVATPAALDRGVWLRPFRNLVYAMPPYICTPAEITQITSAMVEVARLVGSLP

In the case of `CC(=O)c1ccc(C(=O)N2CCCC(CCC(=O)N(C)CCc3ccccn3)C2)s1` (centres undefined), the AC50 [1] is reported as 12.4 µM (active).
For `O=C(C1CCOCC1)N1CC[C@@H]2[C@H](CO)Nc3ccc(Br)cc3[C@@H]21`, the AC50 [1] was 4.43 µM (active).
In the case of `COP(=S)(OC)Oc1c(Cl)cc(C)cc1Cl` [TOLCOFOS-METHYL], the AC50 [2] is reported as 79.4 µM (inconclusive).
In the case of `O=C(Nc1cccc(-c2nc3ncccc3o2)c1)c1sc2ccccc2c1Cl`, the AC50 (Cytochrome P450 2C19) is reported as 0.355 µM (inconclusive), the AC50 (Cytochrome P450 3A4) is reported as 3.98 µM (inconclusive) and the AC50 (Cytochrome P450 2C9) is reported as 2 µM (inconclusive). The IC50 [3] was 3.81 µM (active).
For `Cc1[nH]n(C(N)=S)c(=O)c1/N=N/c1ccc(S(=O)(=O)N2CCCCCC2)cc1`, the EC50 [4] was > 38 µM (not active), the EC50 [5] was > 160 µM (inactive) and the IC50 [6] was > 66 µM (inactive). For the same compound, the IC50 [7] was 9.68 µM (active), the IC50 [8] was > 66 µM (inactive) and the IC50 [9] was 2.52 µM (active). The IC50 (Caspase-3) was 12.9 µM (active) and the IC50 [10] was 15.5 µM (active).
For `O=C(Oc1ccc(OC(=O)N2CCOCC2)cc1)c1ccccc1`, the IC50 [7] was 14.2 µM (active), the IC50 [9] was > 100 µM (inactive) and the IC50 (Caspase-3) was 14.8 µM (active). The IC50 [10] was > 100 µM (inactive).
With `CCS(=O)(=O)c1ccc2c(c1)NC(=O)C(C)(C(=O)O)O2` (centres undefined) the EC50 [11] was > 100 µM (inactive).
For `CCOC(=O)c1cnc(SSc2ncc(C(=O)OCC)c(N)n2)nc1N`, the IC50 [12] was 14.5 µM (active).
For `Cc1ccc(-c2nc(NCc3cccnc3)c3ccccc3n2)cc1`, the IC50 [12] was 13.7 µM (active) and the IC50 [3] was 8.04 µM (active).
In the case of `COc1ccc(C)cc1NC(=O)CCS(=O)(=O)c1ccc2c(c1)CC(=O)N2C`, the EC50 [11] is reported as > 100 µM (inactive).
